What was measured:
[1] = LCMS quantitation of compound in harvested tumors; type: in vivo, athymic nude mouse; conditions: i.p. 50 mg/kg, 5× per week over 28 days
Description: Mass spectrometry analysis and Sample preparation. Tumor tissue was isolated, flash frozen in liquid nitrogen, and stored at −80° C. until analysis. Prior to LC-MS analysis, samples were milled in liquid nitrogen and weighed. Tissue was then placed in tubes containing ˜50-75 μL of glass beads (NextAdvance SKU GB10), resuspended to 15 mg/ml in methanol:acetonitrile:water (5:3:2, v:v:v) and processed using a Bullet Blender® (Next Advance, Troy, NY, USA) for 5 minutes at level 4 at 4° C. Suspensions were then vortexed continuously for 30 min at 4° C. Insoluble material was removed by centrifugation at 10,000 g for 10 min at 4° C. and supernatants were isolated for metabolomics analysis by UHPLC-MS. Standard curves were prepared by serial dilution of the purified AA-29-141 compound into a pool of vehicle-treated tumor extract.
UHPLC-MS analysis for quantification of 42 in tumor tissue. Analyses were performed as previously published. Briefly, the analytical platform employs a Vanquish UHPLC system (Thermo Fisher Scientific, San Jose, CA, USA) coupled online to a Q Exactive mass spectrometer (Thermo Fisher Scientific, San Jose, CA, USA). […]

SW620 tumor organoids = assay: 3D invasion assay; type: cell-based; conditions: SW620 tumor organoids treated 72 hours, viable cells incubated further 72 hours
Description: 3D Invasion Assay. SW620 cells were transduced with NucLight®-Red virus (Essen BioSciences, MI) and selected with Zeocin (200 μg/mL). Transduced cells were cultured in RPMI-1640 media supplemented with 5% FBS and allowed to grow in a […] until ˜80% confluent. Afterwards, cells were plated in a CellCarrier Spheroid Ultra-Low Attachment 96-well plate (PerkinElmer, MA) at 5,000 cells/well in 2% Matrigel (Corning, NY) and allowed to grow for 72 hours. Cells were then treated with 10 μM of analogs […] and cultured for an additional 72 hours. Organoids were then collected, half a 96-well plate per treatment condition, spun down at 500 g, washed with PBS, and dissociated with 500 μL of Cultrex® Organoid Harvesting Solution (Trevigen, MD) for 30 min in ice with moderate mixing. Single cells were then spun down at 500 g, the supernatant was discarded, cells were washed with PBS, re-centrifuged, and resuspended in RPMI-1640 media supplemented with 0.5% FBS. Live cells were counted and then plated in an Incucyte® ClearView 96-well cell migration plate (Essen BioSciences, MI) in a 1:1 ratio of Matrigel (Corning, NY) and RPMI-1640 media supplemented with 0.5% FBS and 1% penicillin/streptomycin at 5,000 cells/well. […] Cell invasion was monitored using the Incucyte® ZOOM imaging system (Essen BioSciences, MI) for bottom fluorescence of invading cells per manufacturer's recommendations. […]

| Structure (SMILES) | quantity of compound in tumors (LCMS/HRMS) [1] | invasive potential, in words (SW620 tumor organoids) |
| --- | --- | --- |
| O=C(CCN1CCOCC1)Nc1ccc2c(-c3cc(F)ccc3O)ccnc2c1O [Analog 42] | significant HRMS quantity |  |
| CC(=O)Nc1ccc2c(-c3cc(F)ccc3O)ccnc2c1O [Analog 7] |  | inhibit the invasive potential |

From US12291502B2, “Topoisomerase II-alpha inhibitors and methods of treating cancer using the same” (The Regents of the University of Colorado, priority 2019, dated 2025)
